Experimental data taken from PubChem BioAssay AID2060626 (Molecular Pharmacology Branch, DTP, NCI, 2025).
Each block holds one compound with its values, some of them ahead of it.

System: 168753-222-R-J1-PDC complex spheroid viability
Experiment: Anticancer human tumor 168753-222-R-J1-PDC patient-derived bladder carcinoma cell line growth inhibition [CLK]
Conditions: for IC50: curve of first compound; for viability, T/C: stronger effect = lower value
Method in brief: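 Patient-derived tumor cells grown as complex spheroids with HUVEC endothelial cells and mesenchymal stem cells, treated with drug combinations. Concentrations descend in half-log steps from near clinical Cmax, or from 10 microM if Cmax unknown.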

[1] = second compound 0.0316 µM, first compound 0.0316 µM
[2] = second compound 0.0316 µM, first compound 0.1 µM
[3] = second compound 0.0316 µM, first compound 0.316 µM
[4] = second compound 0.0316 µM, first compound 1 µM
[5] = second compound 0.0316 µM, first compound 3.16 µM
[6] = second compound 0.0316 µM, first compound 10 µM
[7] = second compound 0.1 µM, first compound 0.0316 µM
[8] = second compound 0.1 µM, first compound 0.1 µM
[9] = second compound 0.1 µM, first compound 0.316 µM
[10] = second compound 0.1 µM, first compound 1 µM
[11] = second compound 0.1 µM, first compound 3.16 µM
[12] = second compound 0.1 µM, first compound 10 µM
[13] = second compound 0.316 µM, first compound 0.0316 µM
[14] = second compound 0.316 µM, first compound 0.1 µM
[15] = second compound 0.316 µM, first compound 0.316 µM
[16] = second compound 0.316 µM, first compound 1 µM
[17] = second compound 0.316 µM, first compound 3.16 µM
[18] = second compound 0.316 µM, first compound 10 µM
[19] = second compound 1 µM, first compound 0.0316 µM
[20] = second compound 1 µM, first compound 0.1 µM
[21] = second compound 1 µM, first compound 0.316 µM
[22] = second compound 1 µM, first compound 1 µM
[23] = second compound 1 µM, first compound 3.16 µM
[24] = second compound 1 µM, first compound 10 µM
[25] = second compound 3.16 µM, first compound 0.0316 µM
[26] = second compound 3.16 µM, first compound 0.1 µM
[27] = second compound 3.16 µM, first compound 0.316 µM
[28] = second compound 3.16 µM, first compound 1 µM
[29] = second compound 3.16 µM, first compound 3.16 µM
[30] = second compound 3.16 µM, first compound 10 µM
[31] = second compound 10 µM, first compound 0.0316 µM
[32] = second compound 10 µM, first compound 0.1 µM
[33] = second compound 10 µM, first compound 0.316 µM
[34] = second compound 10 µM, first compound 1 µM
[35] = second compound 10 µM, first compound 3.16 µM
[36] = second compound 10 µM, first compound 10 µM
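Also: viability measured after seven days of drug exposure.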
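For viability, T/C in this document: luminescence signal used as surrogate for viable cell amount; 100% = DMSO vehicle control wells.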

IC50 (second compound 0.0316 µM): 1620 nM
IC50 (second compound 0.1 µM): 1690 nM
IC50 (second compound 0.316 µM): 565 nM
IC50 (second compound 1 µM): < 31.6 nM
IC50 (second compound 3.16 µM): < 31.6 nM
IC50 (second compound 10 µM): < 31.6 nM
Compound: COc1ccc([C@@H](O)c2cc(-c3ncnc4cc(N5CCOCC5)ccc34)c(F)cc2Cl)nn1 + CNC(=O)c1ccc(Nc2nc(OC3CCCC3)c3c(-c4ccc5nc(C)oc5c4)c[nH]c3n2)c(OC)c1
viability, T/C [1]: 107%
viability, T/C [2]: 94%
viability, T/C [3]: 88.3%
viability, T/C [4]: 67.8%
viability, T/C [5]: 27%
viability, T/C [6]: 15.9%
viability, T/C [7]: 91.1%
viability, T/C [8]: 94.5%
viability, T/C [9]: 82.7%
viability, T/C [10]: 69.4%
viability, T/C [11]: 27.9%
viability, T/C [12]: 16.8%
viability, T/C [13]: 75.6%
viability, T/C [14]: 78.9%
viability, T/C [15]: 67.3%
viability, T/C [16]: 32.5%
viability, T/C [17]: 20.7%
viability, T/C [18]: 13.9%
viability, T/C [19]: 41.9%
viability, T/C [20]: 27.2%
viability, T/C [21]: 26.3%
viability, T/C [22]: 18.4%
viability, T/C [23]: 16.5%
viability, T/C [24]: 13.5%
viability, T/C [25]: 25.3%
viability, T/C [26]: 23.7%
viability, T/C [27]: 21.1%
viability, T/C [28]: 16.6%
viability, T/C [29]: 17.8%
viability, T/C [30]: 15.8%
viability, T/C [31]: 18.5%
viability, T/C [32]: 21.5%
viability, T/C [33]: 20.8%
viability, T/C [34]: 15.9%
viability, T/C [35]: 15.4%
viability, T/C [36]: 11.3%

IC50 (second compound 0.0316 µM): 291 nM
IC50 (second compound 0.1 µM): 266 nM
IC50 (second compound 0.316 µM): 141 nM
IC50 (second compound 1 µM): < 31.6 nM
IC50 (second compound 3.16 µM): < 31.6 nM
IC50 (second compound 10 µM): < 31.6 nM
Compound: COc1cccc2c1C(=O)c1c(O)c3c(c(O)c1C2=O)CC(O)(C(=O)CO)CC3OC1CC(N)C(O)C(C)O1 (centres undefined) + CNC(=O)c1ccc(Nc2nc(OC3CCCC3)c3c(-c4ccc5nc(C)oc5c4)c[nH]c3n2)c(OC)c1
viability, T/C [1]: 83.8%
viability, T/C [2]: 73.1%
viability, T/C [3]: 50%
viability, T/C [4]: 14.6%
viability, T/C [5]: 13.7%
viability, T/C [6]: 0.12%
viability, T/C [7]: 94.5%
viability, T/C [8]: 72.3%
viability, T/C [9]: 49.8%
viability, T/C [10]: 14.9%
viability, T/C [11]: 15.6%
viability, T/C [12]: 0.1%
viability, T/C [13]: 71.9%
viability, T/C [14]: 57.7%
viability, T/C [15]: 33.1%
viability, T/C [16]: 14.1%
viability, T/C [17]: 8%
viability, T/C [18]: 0.12%
viability, T/C [19]: 30.2%
viability, T/C [20]: 18.5%
viability, T/C [21]: 15.2%
viability, T/C [22]: 14.1%
viability, T/C [23]: 6.77%
viability, T/C [24]: 0.13%
viability, T/C [25]: 18.4%
viability, T/C [26]: 17.9%
viability, T/C [27]: 13.3%
viability, T/C [28]: 12.1%
viability, T/C [29]: 2.89%
viability, T/C [30]: 0.14%
viability, T/C [31]: 16%
viability, T/C [32]: 16%
viability, T/C [33]: 12.1%
viability, T/C [34]: 11.2%
viability, T/C [35]: 0.71%
viability, T/C [36]: 0.24%
